Laboratory results as given in patent US20130323303A1, “DRUG CARRIER AND PREPARATION METHOD THEREOF” (NATIONAL CHIAO TUNG UNIVERSITY, priority 2012, published 2013).

Tested on: tumor (transplanted cancer cells carrying fluorescent gene)
Experiment: Animal tumor model, tumor size recorded via in vivo imaging system (IVIS)
Settings: mouse model, after 28 days of drug treatment
Protocol: Under the in vivo experiment of animal tumor model, first a mouse model treated with doxorubucin was prepared as the control group, and another mouse model treated with the oral drug carrier containing doxorubucin was prepared as the experimental group. After drug treatment, the mouse models were recorded the variation of tumor size via in vivo imaging system (IVIS) (because of the mice transplanted with the cancer cells carrying fluorescent gene).
FIG. 6A and 6B are […] of the experimental group that the mouse model was treated with drug at 0 day and after 28 days. The tumor size of the mouse model in the experimental group was 65% compared to before treatment. FIG. 6C and 6D are IVIS photos of the control group that the mouse model was treated with drug at 0 day and after 28 days. […] FIG. 7 is a variation graph in fluorescence values of tumor cells tested by IVIS, and the tumor cells were from the above mouse model treated with drug.

Question: For `COc1cccc2c1C(=O)c1c(O)c3c(c(O)c1C2=O)C[C@@](O)(C(=O)CO)C[C@@H]3O[C@H]1C[C@H](N)[C@H](O)[C@H](C)O1` [doxorubucin, doxorubicin], which “tumor size compared to before treatment” value is on record?
Answer: 200%
